Test system: insulin-degradation enzyme (IDE)
Assay: Insulin-Au NC fluorescence in mouse brain homogenate (IDE degradation and inhibition)
Format: biochemical
Conditions: inhibitor 0.01 to 1 mM pre-incubated 30 min with brain homogenate
Procedure: In addition, ten-week-old C57BL/6J male mice were well-anesthetized by i.p. injection of pentobarbital (75 mg/kg), and then the brain was removed and homogenated in PBS. The homogenate was then centrifuged at 6,000×g for 20 min and the supernatant was collected for the preparation of further experiments.
0.01, 0.1, and 1 mM doses of thiorphan or racecadotril, which was known as inhibiting agents for insulin-degradation enzyme (IDE), were co-incubated with the brain homogenates for 30 min, and then 10 μg/ml insulin-Au NCs was added and incubated with brain homogenates for 1 hour at 37° C. The detection of the insulin-Au NCs was determined by 450 nm and 650 nm of the emission excitation wavelength, respectively.

| SMILES | recovery of 670 nm emission (IDE inhibition) |
| --- | --- |
| CC(=O)SCC(Cc1ccccc1)C(=O)NCC(=O)OCc1ccccc1 (centres unmarked) [racecadotril] | signal recovery was increased |
| O=C(O)CNC(=O)C(CS)Cc1ccccc1 (centres unmarked) [thiorphan] | signal recovery was increased |

— patent US8580731B2, “Insulin-gold nanocluster, pharmaceutical composition for reducing blood glucose comprising the same, and method for detecting adipose cells in tissue by using the same” (priority 2012, dated 2013)
